Each structure is given as a SMILES string.

Assay [1] addresses T1, GPR40 (Homo sapiens, UniProt O14842). Description: Cell-based aequorin assay (CHO cells stably expressing GPR40 and aequorin). Set-up: expressed in transfected cells; host or cells: CHO cells stably transfected with GPR40 and aequorin. To be noted: activation of human GPR40, CHO cells, 0.01% HSA. Put shortly: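 CHO cells stably co-expressing GPR40 and aequorin, loaded with coelenterazine (1 ug/mL, 2 h, room temperature) in H/HBSS with 20 mM Hepes and 0.01% fatty acid-free HSA. Serially diluted compounds added; luminescence recorded over 20 s. EC50 from dose-response of maximum relative light units.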

The target in assay [2] is T1, GPR40. In words: Inositol phosphate accumulation assay (A9_GPR40 cells). It is filed as cell-based. Also on record: expressed in transfected cells; host or cells: CHO cells stably transfected with GPR40 and aequorin. To be noted: inositol phosphate assay, A9_GPR40 cells, 1 hour; read-out: IP3 EC50. How it is done: Briefly, the Aequorin assays were performed on doubly stable CHO cells expressing GPR40 and Aequorin DNA. […] The luminescence was recorded over a period of 20 seconds with a Microlumat luminometer (Berthold). […] The inositol phosphate assay was performed on an A9 cell line stably transfected with GPR40 (A9_GPR40). The cells were incubated with different concentrations of compounds and [^3H] inositol accumulation was measured after 1 hour.
An A9 cell line stably transfected with GPR40 (A9_GPR40) was used in IP accumulation assays. A9_GPR40 cells were plated in 96-well plates containing 20,000 cells/well in DMEM containing 10% FBS. After the cells attached to the well surface, the media was replaced with inositol free DMEM containing 10% dialyzed FBS and 1 μCi, mL ^3H-inositol and incubated for 16 hours. Compounds were diluted in HBSS/10 mM LiCl containing a desired amount of HSA and added directly to cells. Following 1 hour incubation at 37° C., the media was replaced with 100 μL of 20 mM formic acid to quench the reaction. 50 μL of the extract was then added to 100 μL of SPA beads, incubated overnight, and measured on a TopCount the following day.

T1 sequence (O14842 whole entry): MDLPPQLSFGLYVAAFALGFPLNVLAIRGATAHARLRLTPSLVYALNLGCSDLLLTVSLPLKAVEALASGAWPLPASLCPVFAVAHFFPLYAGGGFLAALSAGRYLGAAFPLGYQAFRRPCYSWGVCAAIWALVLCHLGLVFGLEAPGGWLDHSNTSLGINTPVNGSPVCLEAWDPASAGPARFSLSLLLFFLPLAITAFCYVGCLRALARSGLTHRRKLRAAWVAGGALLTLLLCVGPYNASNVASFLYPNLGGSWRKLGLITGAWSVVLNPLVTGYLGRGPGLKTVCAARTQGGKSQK

Usually EC50 stands for the concentration at which the effect is half-maximal. `COc1ccc(F)c(-c2ccc(COc3cccc(C(CC(=O)O)CC4CC4)c3)cc2C(C)C(C)(C)C)c1` (single isomer, unassigned) [Example 69.22]: the values for the EC50 on GPR40 [1] and on GPR40 [2] were 100 to 1000 nM and less than 10 nM, respectively.

`COc1ccc(F)c(-c2ccc(COc3cccc([C@@H](CC(=O)O)C4CC4)c3)cc2[C@H]2OCCCC2(C)C)c1` (single isomer, unassigned) [Example 66.54]: the values for the EC50 on GPR40 [1] and on GPR40 [2] were 100 to 1000 nM and 10 to 100 nM, respectively.

Turning to `CCC(CC(=O)O)c1cc(F)cc(OCc2ccc(-c3cc(OC)ccc3F)c(C3CCCC3(C)C)c2)c1F` (single isomer, unassigned) [Example 90.2], the concentration giving a half-maximal response (EC50) on GPR40 [1] was 100 to 1000 nM; at GPR40 [2], less than 10 nM.

For the compound `COc1ccc(F)c(-c2ccc(COc3cccc([C@@H](CC(=O)O)C4CCC4)c3)cc2[C@@H]2CCCC2(C)C)c1` (single isomer, unassigned) [Example 79.4], the EC50 on GPR40 [1] was 10 to 100 nM; at GPR40 [2], less than 10 nM.

In the case of `COc1ccc(F)c(-c2ccc(COc3cccc([C@@H](CC(=O)O)C4CC4)c3)cc2COC(C)(C)C)c1` (single isomer, unassigned) [Example 66.63, (3S)-3-Cyclopropyl-3-(3-(((2-(((1,1-dimethylethyl)oxy)methyl)-2′-fluoro-5′-(methyloxy)-1,1′-biphenyl-4-yl)methyl)oxy)phenyl)propanoic acid or (3R)-3-cyclopropyl-3-(3-(((2-(((1,1-dimethylethyl)oxy)methyl)-2′-fluoro-5′-(methyloxy)-1,1′-biphenyl-4-yl)methyl)oxy)phenyl)propanoic acid], the EC50 at GPR40 [1] and on GPR40 [2] was 1000 to 10000 nM throughout.

As to `CC1(C)CCC=C1c1cc(COc2cccc([C@@H](CC(=O)O)C3CC3)c2)ccc1-c1cc(C(F)F)ccc1F` (single isomer, unassigned) [Example 66.50, (3S)-3-Cyclopropyl-3-(3-(((5′-(difluoromethyl)-2-(5,5-dimethyl-1-cyclopenten-1-yl)-2′-fluoro-1,1′-biphenyl-4-yl)methyl)oxy)phenyl)propanoic acid or (3R)-3-cyclopropyl-3-(3-(((5′-(difluoromethyl)-2-(5,5-dimethyl-1-cyclopenten-1-yl)-2′-fluoro-1,1′-biphenyl-4-yl)methyl)oxy)phenyl)propanoic acid], the EC50 on GPR40 [1] and at GPR40 [2] was 100 to 1000 nM throughout.

With `COc1ccc(F)c(-c2ccc(COc3cccc(C(CC(=O)O)CC4CC4)c3F)cc2C2CCCCC2(C)C)c1` (single isomer, unassigned) [Example 84.6], the values for the EC50 at GPR40 [1] and at GPR40 [2] were 100 to 1000 nM and less than 10 nM, respectively.

With `COc1ccc(F)c(-c2ccc(COc3cccc(C(CC(=O)O)C4CC4)c3F)cc2C2=CCCC2(C)C)c1` (single isomer, unassigned) [Example 83.14, (3S)-3-Cyclopropyl-3-(3-(((2-(5,5-dimethyl-1-cyclopenten-1-yl)-2′-fluoro-5′-(methyloxy)-1,1′-biphenyl-4-yl)methyl)oxy)-2-fluorophenyl)propanoic acid or (3R)-3-cyclopropyl-3-(3-(((2-(5,5-dimethyl-1-cyclopenten-1-yl)-2′-fluoro-5′-(methyloxy)-1,1′-biphenyl-4-yl)methyl)oxy)-2-fluorophenyl)propanoic acid], the EC50 on GPR40 [1] was 100 to 1000 nM; on GPR40 [2], less than 10 nM.

Take `CCC(CC(=O)O)c1cc(F)cc(OCc2ccc(-c3cc(OC)ncc3F)c(C3CCCC3(C)C)c2)c1` (single isomer, unassigned) [Example 88.4]: the EC50 at GPR40 [1] was 100 to 1000 nM; on GPR40 [2] it was less than 10 nM.

As to `COc1ccc(F)c(-c2ccc(COc3cccc([C@@H](CC(=O)O)C4CC4)c3)cc2C2=CCCC2)c1` (single isomer, unassigned) [Example 66.68, (S)-3-[3-(2-Cyclopent-1-enyl-2′-fluoro-5′-methoxy-biphenyl-4-ylmethoxy)-phenyl]-3-cyclopropyl-propionic acid or (R)-3-[3-(2-cyclopent-1-enyl-2′-fluoro-5′-methoxy-biphenyl-4-ylmethoxy)-phenyl]-3-cyclopropyl-propionic acid], the values for the EC50 on GPR40 [1] and on GPR40 [2] were 100 to 1000 nM and 10 to 100 nM, respectively.

For `CCC(CC(=O)O)c1cccc(OCc2cc(C3CCCC3(C)C)c(-c3cc(OC)ccc3F)cc2F)c1F` (single isomer, unassigned) [Example 77.6], the EC50 was 100 to 1000 nM at GPR40 [1] and less than 10 nM at GPR40 [2].

With `CCCCOc1cc(COc2cccc([C@H](C)CC(=O)O)c2)ccc1-c1cc(OC)ccc1F` (single isomer, unassigned) [Example 5, (3R)-3-(3-(((2Butyloxy)-2′-fluoro-5′-(methyloxy)-1,1′-biphenyl-4-yl)methyl)oxy)phenyl)butanoic acid or (3S)-3-(3-(((2-(butyloxy)-2′-fluoro-5′-(methyloxy)-1,1′-biphenyl-4-yl)methyl)oxy)phenyl)butanoic acid], the EC50 at GPR40 [1] and at GPR40 [2] was 100 to 1000 nM throughout.

Regarding `COc1ccc(F)c(-c2ccc(COc3cccc(C(CC(=O)O)C4CC4)c3)cc2CN2C(C)CCCC2C)c1` (single isomer, unassigned) [Example 66.70], the values for the EC50 on GPR40 [1] and on GPR40 [2] were 100 to 1000 nM and 10 to 100 nM, respectively.

As to `CC[C@H](CC(=O)O)c1cccc(SCc2ccc(-c3cc(OC)ccc3F)c([C@H]3CCCC3(C)C)c2)c1` (single isomer, unassigned) [Example 82], the results for the EC50 at GPR40 [1] and on GPR40 [2] were 100 to 1000 nM and 1000 to 10000 nM, respectively.

For the compound `CCCC(CC(=O)O)c1cccc(OCc2ccc(-c3cccc(OC)c3)c(C3CCCC3(C)C)c2)c1` (single isomer, unassigned) [Example 80.6], the EC50 is 100 to 1000 nM on GPR40 [1] and less than 10 nM on GPR40 [2].

With `CCC(CC(=O)O)c1cccc(OCc2ccc(-c3cc(OC)ccc3F)c(C(C)(C)C)c2)c1F` (single isomer, unassigned) [Example 77.2, (3R)-3-(3-(((2-(1,1-Dimethylethyl)-2′-fluoro-5′-(methyloxy)-1,1′-biphenyl-4-yl)methyl)oxy)-2-fluorophenyl)pentanoic acid or (3S)-3-(3-(((2-(1,1-dimethylethyl)-2′-fluoro-5′-(methyloxy)-1,1′-biphenyl-4-yl)methyl)oxy)-2-fluorophenyl)pentanoic acid], the EC50 at GPR40 [1] and at GPR40 [2] was 100 to 1000 nM each time.

With `COc1ccc(F)c(-c2ccc(COc3cccc([C@@H](CC(=O)O)CC4CC4)c3)cc2C(C)C(C)C)c1` (single isomer, unassigned) [Example 69.12, (3R)-4-Cyclopropyl-3-(3-(((2-(1,2-dimethylpropyl)-2′-fluoro-5′-(methyloxy)-1,1′-biphenyl-4-yl)methyl)oxy)phenyl)butanoic acid or (3S)-4-cyclopropyl-3-(3-(((2-(1,2-dimethylpropyl)-2′-fluoro-5′-(methyloxy)-1,1′-biphenyl-4-yl)methyl)oxy)phenyl)butanoic acid], the EC50 on GPR40 [1] was 100 to 1000 nM; at GPR40 [2], less than 10 nM.

For `COc1ccc(F)c(-c2cc(F)c(COc3cc(F)cc(C(CC(=O)O)CC4CC4)c3)cc2C2CCCC2(C)C)c1` (single isomer, unassigned) [Example 89.3], the EC50 on GPR40 [1] was 100 to 1000 nM; on GPR40 [2], less than 10 nM.

As to `COc1ccc(F)c(-c2ccc(COc3cccc(C(C)(CC(=O)O)C4CC4)c3)cc2[C@H]2CCCC2(C)C)c1` (single isomer, unassigned) [Example 104, 3-Cyclopropyl-3-(3-(((2-((1S)-2,2-dimethylcyclopentyl)-2′-fluoro-5′-(methyloxy)-1,1′-biphenyl-4-yl)methyl)oxy)phenyl)butanoic acid or 3-cyclopropyl-3-(3-(((2-((1R)-2,2-dimethylcyclopentyl)-2′-fluoro-5′-(methyloxy)-1,1′-biphenyl-4-yl)methyl)oxy)phenyl)butanoic acid], the EC50 was 100 to 1000 nM at GPR40 [1] and 10 to 100 nM on GPR40 [2].

Turning to `COc1cc(-c2ccc(COc3cccc(C(C)(C)CC(=O)O)c3)cc2C(OC)C(C)(C)C)c(F)cn1` (single isomer, unassigned) [Example 85.6, 3-(3-(((3-((1S)-2,2-Dimethyl-1-(methyloxy)propyl)-4-(5-fluoro-2-(methyloxy)-4-pyridinyl)phenyl)methyl)oxy)phenyl)-3-methylbutanoic acid or 3-(3-(((3-((1R)-2,2-dimethyl-1-(methyloxy)propyl)-4-(5-fluoro-2-(methyloxy)-4-pyridinyl)phenyl)methyl)oxy)phenyl)-3-methylbutanoic acid], the EC50 at GPR40 [1] was 100 to 1000 nM; on GPR40 [2], 10 to 100 nM.

With `COc1ccc(F)c(-c2ccc(COc3cccc(C(C)CC(=O)O)c3)cc2C(C)(C)C)c1` (single isomer, unassigned) [Example 42, (3R)-3-(3-(((2-(1,1-Dimethylethyl)-2′-fluoro-5′-(methyloxy)-1,1′-biphenyl-4-yl)methyl)oxy)phenyl)butanoic acid or (3S)-3-(3-(((2-(1,1-dimethylethyl)-2′-fluoro-5′-(methyloxy)-1,1′-biphenyl-4-yl)methyl)oxy)phenyl)butanoic acid], the results for the EC50 on GPR40 [1] and at GPR40 [2] were 100 to 1000 nM and 1000 to 10000 nM, respectively.

These data come from patent publication US8030354B2, “Substituted biphenyl GPR40 modulators” (Amgen Inc., priority 2007, dated 2011).
